Active and inactive are the calls of the source.
Assays:
Escherichia coli = test: microbe, parasite or virus in culture
[1] = target: Voltage-dependent T-type calcium channel subunit alpha-1H (Homo sapiens, UniProt O95180); assay type: functional;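 further: channel activity triggered by adding a high calcium stimulation buffer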
[2] = NIH-3T3 fibroblast cytotoxicity, dose response, cytotoxicity control, cell-based, fluorescence, Alamar Blue, secondary assay (AID 2327); assay type: functional;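 further: NIH-3T3 mouse fibroblasts cultured with fluconazole at 8 µg/mL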
[3] = fluconazole-exposed Candida albicans growth modulators – fluorescence, retest, confirmation (AID 2467); assay type: functional, cell-based
Beta-galactosidase = Beta-galactosidase (Escherichia coli, UniProt Q8VNN2); test: Dose response counterscreen for EBI2 assay utilizing the enzyme, b-galactosidase.; assay type: functional
Sequence of Beta-galactosidase (Q8VNN2 whole entry): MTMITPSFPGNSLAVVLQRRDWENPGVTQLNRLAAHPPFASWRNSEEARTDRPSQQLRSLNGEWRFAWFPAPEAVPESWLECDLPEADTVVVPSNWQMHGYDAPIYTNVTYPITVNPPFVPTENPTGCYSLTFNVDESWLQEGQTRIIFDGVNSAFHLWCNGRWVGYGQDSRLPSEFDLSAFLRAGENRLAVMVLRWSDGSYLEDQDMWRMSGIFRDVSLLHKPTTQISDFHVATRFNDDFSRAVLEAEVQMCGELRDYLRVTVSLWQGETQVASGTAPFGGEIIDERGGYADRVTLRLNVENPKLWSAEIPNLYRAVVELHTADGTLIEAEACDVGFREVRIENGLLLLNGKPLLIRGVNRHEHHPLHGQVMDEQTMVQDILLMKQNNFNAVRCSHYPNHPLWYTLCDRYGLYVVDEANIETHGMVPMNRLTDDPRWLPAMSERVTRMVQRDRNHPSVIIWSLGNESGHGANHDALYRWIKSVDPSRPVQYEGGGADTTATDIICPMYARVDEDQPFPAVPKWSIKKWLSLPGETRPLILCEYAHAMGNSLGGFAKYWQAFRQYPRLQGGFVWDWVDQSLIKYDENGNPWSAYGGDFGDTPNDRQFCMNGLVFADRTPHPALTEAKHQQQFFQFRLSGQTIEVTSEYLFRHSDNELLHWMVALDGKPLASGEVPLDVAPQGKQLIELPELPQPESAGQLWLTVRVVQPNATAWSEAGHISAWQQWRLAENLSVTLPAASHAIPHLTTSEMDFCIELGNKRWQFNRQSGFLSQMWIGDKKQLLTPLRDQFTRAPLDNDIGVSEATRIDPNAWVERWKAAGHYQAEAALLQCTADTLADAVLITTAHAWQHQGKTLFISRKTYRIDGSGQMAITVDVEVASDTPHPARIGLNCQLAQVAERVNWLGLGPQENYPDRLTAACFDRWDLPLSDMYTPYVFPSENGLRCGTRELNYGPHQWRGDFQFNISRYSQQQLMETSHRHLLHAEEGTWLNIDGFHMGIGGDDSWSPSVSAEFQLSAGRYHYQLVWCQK

[4] = target: T1, Short transient receptor potential channel 4 (Mus musculus, UniProt Q9QUQ5); test: calcium entry via TRPC4 opening agents – cell-based, HEK293 TRPC4/mu-opioid, Fluo-4 calcium, dose response (AID 434937); assay type: functional
T1 sequence (Q9QUQ5 whole entry): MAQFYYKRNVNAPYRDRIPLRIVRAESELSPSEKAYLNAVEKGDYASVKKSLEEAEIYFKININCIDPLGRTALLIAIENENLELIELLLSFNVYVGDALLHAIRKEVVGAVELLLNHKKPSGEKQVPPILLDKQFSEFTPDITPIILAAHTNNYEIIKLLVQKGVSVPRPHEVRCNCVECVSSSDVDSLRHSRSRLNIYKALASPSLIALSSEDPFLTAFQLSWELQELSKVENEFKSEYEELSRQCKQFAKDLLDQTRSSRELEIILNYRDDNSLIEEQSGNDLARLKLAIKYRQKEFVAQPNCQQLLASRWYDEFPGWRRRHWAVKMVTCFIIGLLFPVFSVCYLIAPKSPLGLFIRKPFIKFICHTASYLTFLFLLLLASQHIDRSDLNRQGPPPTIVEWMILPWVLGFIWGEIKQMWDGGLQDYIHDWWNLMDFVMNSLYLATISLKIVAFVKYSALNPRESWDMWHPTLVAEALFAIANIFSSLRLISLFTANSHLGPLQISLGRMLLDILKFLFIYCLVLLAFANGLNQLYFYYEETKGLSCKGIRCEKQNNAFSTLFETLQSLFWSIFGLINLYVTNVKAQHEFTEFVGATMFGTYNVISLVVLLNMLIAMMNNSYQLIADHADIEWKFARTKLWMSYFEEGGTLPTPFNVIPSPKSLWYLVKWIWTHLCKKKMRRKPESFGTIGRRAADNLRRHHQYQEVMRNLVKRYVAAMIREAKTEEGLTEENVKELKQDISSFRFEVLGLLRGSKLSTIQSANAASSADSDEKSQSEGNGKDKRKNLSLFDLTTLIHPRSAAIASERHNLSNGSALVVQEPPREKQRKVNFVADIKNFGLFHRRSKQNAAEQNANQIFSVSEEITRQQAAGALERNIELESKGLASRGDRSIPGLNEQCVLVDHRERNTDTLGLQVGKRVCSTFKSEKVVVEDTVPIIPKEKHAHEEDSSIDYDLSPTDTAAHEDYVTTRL

Fatty acid synthase = Fatty acid synthase (Homo sapiens, UniProt P49327); test: inhibition of human FAS-TE enzyme activity – biochemical, kinetic fluorescence intensity, dose response (AID 624326); assay type: functional;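 further: rate of fluorescence rise from hydrolysis of a fluorogenic O-methyl fluorescein ester substrate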
Cytochrome P450 3A4 = Cytochrome P450 3A4 (Homo sapiens, UniProt P08684);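 further: CYP3A4 tested as one member of a cytochrome P450 panel screen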
Sequence of Cytochrome P450 3A4 (P08684 whole entry): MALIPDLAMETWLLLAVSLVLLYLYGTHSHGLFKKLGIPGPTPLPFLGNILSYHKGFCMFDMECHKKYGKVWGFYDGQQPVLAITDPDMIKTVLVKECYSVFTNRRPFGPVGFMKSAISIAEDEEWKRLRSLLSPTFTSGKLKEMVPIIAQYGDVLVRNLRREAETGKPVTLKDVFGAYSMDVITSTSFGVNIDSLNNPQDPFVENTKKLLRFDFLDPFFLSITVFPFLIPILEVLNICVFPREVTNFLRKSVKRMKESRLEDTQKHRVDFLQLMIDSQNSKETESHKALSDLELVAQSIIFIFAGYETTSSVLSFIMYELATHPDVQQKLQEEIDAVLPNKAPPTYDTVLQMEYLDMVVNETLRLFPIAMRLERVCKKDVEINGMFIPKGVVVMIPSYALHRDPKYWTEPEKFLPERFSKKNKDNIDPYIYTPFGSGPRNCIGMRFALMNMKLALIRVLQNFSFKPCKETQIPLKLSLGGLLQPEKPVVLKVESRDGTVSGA

[5] = target: Glyceraldehyde-3-phosphate dehydrogenase (Homo sapiens, UniProt P04406)
Sequence of Glyceraldehyde-3-phosphate dehydrogenase (P04406 whole entry): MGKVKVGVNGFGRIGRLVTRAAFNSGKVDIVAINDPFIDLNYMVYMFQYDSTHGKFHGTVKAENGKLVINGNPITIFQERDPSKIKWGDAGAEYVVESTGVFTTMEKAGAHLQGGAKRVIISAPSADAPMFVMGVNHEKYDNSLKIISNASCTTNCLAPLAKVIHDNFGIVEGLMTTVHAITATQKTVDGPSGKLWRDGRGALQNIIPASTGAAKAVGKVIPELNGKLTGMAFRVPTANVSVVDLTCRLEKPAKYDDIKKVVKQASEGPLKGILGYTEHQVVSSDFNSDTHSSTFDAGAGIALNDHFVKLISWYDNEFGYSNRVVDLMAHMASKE

[6] = target: T2, Alkaline phosphatase, tissue-nonspecific isozyme (Homo sapiens, UniProt P05186); test: potency against alkaline phosphatase TNAP – biochemical, luminescent, dose response, SAR follow-up (AID 1056)
T2 sequence (P05186 whole entry): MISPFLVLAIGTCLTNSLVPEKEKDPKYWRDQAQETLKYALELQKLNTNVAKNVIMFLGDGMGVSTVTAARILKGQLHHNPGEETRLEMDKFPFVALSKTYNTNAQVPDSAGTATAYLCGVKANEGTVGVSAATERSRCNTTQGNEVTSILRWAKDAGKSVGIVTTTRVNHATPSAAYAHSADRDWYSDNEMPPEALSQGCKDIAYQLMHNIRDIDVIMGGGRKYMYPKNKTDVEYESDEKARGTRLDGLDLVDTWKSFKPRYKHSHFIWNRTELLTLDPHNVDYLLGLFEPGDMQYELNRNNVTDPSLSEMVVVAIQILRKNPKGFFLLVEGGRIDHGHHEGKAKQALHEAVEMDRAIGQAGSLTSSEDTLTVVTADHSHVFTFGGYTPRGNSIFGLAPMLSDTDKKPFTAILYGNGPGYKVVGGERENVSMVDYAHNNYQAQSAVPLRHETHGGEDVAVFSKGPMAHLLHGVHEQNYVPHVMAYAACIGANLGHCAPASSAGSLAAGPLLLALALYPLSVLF

[7] = HEK-293T viability loss after treatment – luminescence, T-cell screen hits, cytotoxicity control for TCR NF-kB inhibitor project, dose response (AID 489026); assay type: functional, cell-based;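 further: cells exposed to compound about 14 hours before the viability readout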
Cytochrome P450 2C19 = Cytochrome P450 2C19 (Homo sapiens, UniProt P33261); test: Cytochrome panel assay with activity outcomes. Panel member name: p450-cyp2c19 Compounds with AC50 equal or less than 10 uM are considered active; assay type: functional; conditions: read-out: AC50
Cytochrome P450 1A2 = target: T3, Cytochrome P450 1A2 (Homo sapiens, UniProt P05177);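 further: PubChem cytochrome P450 panel assay, CYP1A2 panel member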
T3 sequence (P05177 whole entry): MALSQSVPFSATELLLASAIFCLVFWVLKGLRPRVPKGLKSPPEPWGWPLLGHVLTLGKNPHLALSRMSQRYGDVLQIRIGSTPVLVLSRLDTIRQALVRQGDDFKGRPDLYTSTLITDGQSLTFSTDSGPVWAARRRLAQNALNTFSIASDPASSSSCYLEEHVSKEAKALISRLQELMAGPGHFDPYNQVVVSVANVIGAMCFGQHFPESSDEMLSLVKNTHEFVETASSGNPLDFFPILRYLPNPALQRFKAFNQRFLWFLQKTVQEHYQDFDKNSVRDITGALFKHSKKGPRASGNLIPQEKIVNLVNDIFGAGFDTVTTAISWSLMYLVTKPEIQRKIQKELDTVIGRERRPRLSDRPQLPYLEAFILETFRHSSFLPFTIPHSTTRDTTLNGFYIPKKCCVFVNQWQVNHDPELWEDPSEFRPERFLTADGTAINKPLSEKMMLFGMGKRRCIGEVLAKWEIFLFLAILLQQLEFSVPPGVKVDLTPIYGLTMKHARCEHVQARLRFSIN

cells [8] = assay type: functional, cell-based
[9] = target: T4, Trace amine-associated receptor 1 (Homo sapiens, UniProt Q96RJ0); test: Fluorescence-based cell-based high throughput dose response assay to identify agonists of the human trace amine associated receptor 1 (TAAR1).; assay type: functional
T4 sequence (Q96RJ0 whole entry): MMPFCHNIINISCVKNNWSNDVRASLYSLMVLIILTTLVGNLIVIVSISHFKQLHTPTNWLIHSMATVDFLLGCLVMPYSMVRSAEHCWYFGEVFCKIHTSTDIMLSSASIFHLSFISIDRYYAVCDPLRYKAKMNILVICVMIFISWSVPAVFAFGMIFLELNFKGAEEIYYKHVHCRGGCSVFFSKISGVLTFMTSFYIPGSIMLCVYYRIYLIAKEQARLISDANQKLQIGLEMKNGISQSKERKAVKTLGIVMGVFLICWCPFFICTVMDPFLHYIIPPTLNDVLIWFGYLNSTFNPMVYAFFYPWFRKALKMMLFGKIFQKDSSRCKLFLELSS

[10] = target: T4, Trace amine-associated receptor 1; test: Counterscreen for agonists of the human trace amine associated receptor 1 (hTAAR1): Fluorescence-based cell-based high throughput dose response assay to identify hTAAR1 agonist that also desensitize TAAR1 receptor response.; assay type: functional
cells [11] = assay type: functional, cell-based; remark: listed apart in the source
[12] = Trypanosoma cruzi growth suppression in host cells – NIH3T3 host cells, beta-gal luminescence, confirmation (AID 2044); assay type: functional, cell-based;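 further: intracellular parasites grown in NIH/3T3 mouse fibroblasts as host cells; luminescent beta-galactosidase reporter signal from transgenic T. cruzi replicating inside host cells; inhibitors lower the luminescence signal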
[13] = NIH3T3 cell viability loss – ATP luminescence, mouse fibroblasts, counter-screen, dose response (AID 2010); assay type: functional, cell-based;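 further: cells exposed to compound for about 90 hours before reading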
[14] = target: T1, Short transient receptor potential channel 4; test: block of DAMGO-driven TRPC4 calcium entry – cell-based, HEK293 TRPC4/mu-opioid, Fluo-4 calcium, dose response (AID 434942); assay type: functional;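 further: potency of inhibitors blocking the TRPC4 calcium response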
Cytochrome P450 2C9 = Cytochrome P450 2C9 (Homo sapiens, UniProt P11712)
Sequence of Cytochrome P450 2C9 (P11712 whole entry): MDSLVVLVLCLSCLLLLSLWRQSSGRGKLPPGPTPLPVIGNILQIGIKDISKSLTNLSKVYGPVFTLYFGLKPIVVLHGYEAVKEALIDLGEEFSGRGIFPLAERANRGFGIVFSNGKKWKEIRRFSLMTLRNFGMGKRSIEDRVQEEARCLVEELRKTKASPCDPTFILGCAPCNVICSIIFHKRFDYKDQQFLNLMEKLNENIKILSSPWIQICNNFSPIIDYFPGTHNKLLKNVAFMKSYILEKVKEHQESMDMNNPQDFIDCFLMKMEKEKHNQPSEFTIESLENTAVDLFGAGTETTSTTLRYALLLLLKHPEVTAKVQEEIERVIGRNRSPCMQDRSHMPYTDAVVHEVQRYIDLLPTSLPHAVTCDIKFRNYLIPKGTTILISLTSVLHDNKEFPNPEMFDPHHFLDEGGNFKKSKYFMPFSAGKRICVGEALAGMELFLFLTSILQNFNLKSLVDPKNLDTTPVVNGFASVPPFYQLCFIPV

Sequence of Voltage-dependent T-type calcium channel subunit alpha-1H (O95180 whole entry): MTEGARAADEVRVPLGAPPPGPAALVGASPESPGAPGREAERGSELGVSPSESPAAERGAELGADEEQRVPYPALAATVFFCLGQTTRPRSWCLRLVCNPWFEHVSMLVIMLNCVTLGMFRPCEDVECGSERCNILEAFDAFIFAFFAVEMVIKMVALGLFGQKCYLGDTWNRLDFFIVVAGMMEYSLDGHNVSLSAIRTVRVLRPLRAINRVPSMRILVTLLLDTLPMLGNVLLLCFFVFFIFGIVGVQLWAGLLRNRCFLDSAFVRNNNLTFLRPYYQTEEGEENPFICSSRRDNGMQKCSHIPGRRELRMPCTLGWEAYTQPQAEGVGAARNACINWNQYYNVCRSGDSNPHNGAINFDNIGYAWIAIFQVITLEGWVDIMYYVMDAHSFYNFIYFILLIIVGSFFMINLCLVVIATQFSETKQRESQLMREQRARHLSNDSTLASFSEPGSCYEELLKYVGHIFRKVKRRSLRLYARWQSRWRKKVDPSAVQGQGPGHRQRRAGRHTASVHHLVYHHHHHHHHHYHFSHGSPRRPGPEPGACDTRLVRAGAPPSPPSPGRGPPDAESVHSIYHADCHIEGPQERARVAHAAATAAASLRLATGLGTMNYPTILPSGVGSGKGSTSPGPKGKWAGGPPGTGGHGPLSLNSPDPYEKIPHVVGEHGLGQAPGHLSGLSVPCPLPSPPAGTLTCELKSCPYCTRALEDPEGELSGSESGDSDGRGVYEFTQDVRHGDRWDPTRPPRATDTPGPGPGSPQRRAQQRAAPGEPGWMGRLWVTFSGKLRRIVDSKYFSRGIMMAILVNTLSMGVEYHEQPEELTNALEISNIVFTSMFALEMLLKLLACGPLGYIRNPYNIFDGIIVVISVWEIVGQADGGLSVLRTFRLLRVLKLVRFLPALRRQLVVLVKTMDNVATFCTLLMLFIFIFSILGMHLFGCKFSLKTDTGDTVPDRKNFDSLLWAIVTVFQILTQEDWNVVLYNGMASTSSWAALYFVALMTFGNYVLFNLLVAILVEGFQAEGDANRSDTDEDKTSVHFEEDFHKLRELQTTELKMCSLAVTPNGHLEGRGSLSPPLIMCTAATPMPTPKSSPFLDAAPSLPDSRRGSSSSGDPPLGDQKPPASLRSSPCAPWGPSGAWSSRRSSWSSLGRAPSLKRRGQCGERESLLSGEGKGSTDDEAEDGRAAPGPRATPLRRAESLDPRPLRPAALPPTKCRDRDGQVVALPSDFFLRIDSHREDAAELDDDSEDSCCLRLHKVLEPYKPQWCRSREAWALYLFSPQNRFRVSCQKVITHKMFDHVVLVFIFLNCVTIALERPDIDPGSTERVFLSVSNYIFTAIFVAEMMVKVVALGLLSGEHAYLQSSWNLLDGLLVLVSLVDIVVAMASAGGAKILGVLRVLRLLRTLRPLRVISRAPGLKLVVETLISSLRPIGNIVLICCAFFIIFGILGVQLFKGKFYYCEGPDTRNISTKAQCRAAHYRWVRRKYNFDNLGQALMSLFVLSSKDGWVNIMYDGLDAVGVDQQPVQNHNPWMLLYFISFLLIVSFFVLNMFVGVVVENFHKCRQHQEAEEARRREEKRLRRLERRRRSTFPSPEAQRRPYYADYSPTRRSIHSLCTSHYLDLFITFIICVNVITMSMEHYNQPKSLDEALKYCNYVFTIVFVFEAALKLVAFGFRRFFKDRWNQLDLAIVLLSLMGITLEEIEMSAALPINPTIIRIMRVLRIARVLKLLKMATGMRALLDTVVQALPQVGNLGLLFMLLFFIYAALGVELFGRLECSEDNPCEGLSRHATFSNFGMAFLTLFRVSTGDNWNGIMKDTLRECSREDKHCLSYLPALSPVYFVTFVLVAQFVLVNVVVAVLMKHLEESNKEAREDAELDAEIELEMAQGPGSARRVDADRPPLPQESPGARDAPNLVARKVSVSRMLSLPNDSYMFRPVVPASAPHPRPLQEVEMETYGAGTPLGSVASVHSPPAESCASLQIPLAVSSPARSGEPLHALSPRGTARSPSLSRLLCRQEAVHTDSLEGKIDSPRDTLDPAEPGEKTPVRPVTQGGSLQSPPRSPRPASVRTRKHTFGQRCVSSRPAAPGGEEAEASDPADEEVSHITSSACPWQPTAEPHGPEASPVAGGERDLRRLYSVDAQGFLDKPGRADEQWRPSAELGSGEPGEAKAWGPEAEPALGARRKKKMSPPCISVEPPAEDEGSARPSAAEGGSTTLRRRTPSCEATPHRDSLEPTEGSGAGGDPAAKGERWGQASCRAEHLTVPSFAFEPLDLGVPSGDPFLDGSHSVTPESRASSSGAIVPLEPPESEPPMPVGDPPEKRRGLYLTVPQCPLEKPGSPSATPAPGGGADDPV

CCN1CCN(C(=O)C(NS(=O)(=O)c2ccc3nc(C)sc3c2)C(C)C)CC1 (configuration not stated)
AC50 (Escherichia coli): > 150 µM (inactive)

O=C(NCCCN1CCN(c2cccc(Cl)c2)CC1)C1(S(=O)(=O)c2ccc(Cl)cc2)CC1
EC50 [1]: 6.17 µM (active)

CCOc1ccc(NC(=O)c2ccc(NC(=O)c3cn4c5c(c(N6CCN(C)CC6)c(F)cc5c3=O)OCC4C)cc2)cc1 (configuration not stated)
AC50 (Escherichia coli): 0.645 µM (active)

COc1ccccc1N1CCN(C(=O)c2cc3cc(Cl)ccc3[nH]2)CC1
EC50 [2]: 38.6 µM (active)
EC50 [3]: > 38 µM (not active)
IC50 (Beta-galactosidase): > 80 µM (inactive)

O=S(=O)(NCCc1csc(-c2ccccc2)n1)c1cccnc1
EC50 [4]: 3.76 µM (active)

COCc1cc(C)nc(SCC[N+](C)(C)CC(=O)Nc2ccccc2)c1C#N
IC50 (Fatty acid synthase): 12.4 µM (active)

O=C(CN1CCCCCC1)N1c2ccccc2Sc2ccc(C(F)(F)F)cc21
EC50 [1]: 7.61 µM (active)

O=C(CCNC(=O)Cn1ccc2ccccc2c1=O)NCCCN1CCN(c2ccc(F)cc2)CC1
AC50 (Cytochrome P450 3A4): inconclusive

CN(C)CCCN(C(=O)c1ccc(S(=O)(=O)N2CCc3ccccc32)cc1)c1nc2ccc(F)cc2s1
EC50 [4]: 2.66 µM (active)

CCOC(=O)c1sc(NC(=O)C(CC)OC(=O)C(CC(C)C)NC(=O)c2ccccc2)nc1C (configuration not stated)
EC50 [1]: 5.2 µM (active)

O=C(NCCc1ccccn1)c1ccc(OC2CCN(CCc3ccccc3)CC2)cc1
EC50 [4]: 1.19 µM (active)

CCc1ccc(-c2cc(C(=O)O)[nH]n2)cc1
IC50 [5]: > 100 µM (not active)
IC50 [6]: 17.6 µM (active)

CC(C)Nc1ccc(C(CC(N)=O)NC(=O)c2ccc(Br)cc2)cc1[N+](=O)[O-] (configuration not stated)
IC50 [7]: > 80 µM (inactive)

O=C(Nc1nc2c(s1)CCCC2)c1cccc(S(=O)(=O)N2CCCc3ccccc32)c1
AC50 (Escherichia coli): 134 µM (active)

Cc1ccc(S(=O)(=O)N(CC(=O)N2CCN(c3ccccc3F)CC2)C2CCCCC2)cc1
EC50 [1]: 2.58 µM (active)

Cc1cc(C)c(S(=O)(=O)N2CCN(C(=O)c3cc4ccccc4o3)CC2)c(C)c1
IC50 (Beta-galactosidase): > 80 µM (inactive)

Cc1ccc2[nH]cc(CCNC(=O)Nc3ccccc3)c2c1
EC50 [1]: 5.23 µM (active)

CCCNC(=O)c1cn(CC)c2cc(N3CCN(C)CC3)c(F)cc2c1=O
AC50 (Escherichia coli): 2.04 µM (active)

O=C(Oc1ccccc1)N1CCC2(CC1)CN(c1ccccc1)C2
AC50 (Cytochrome P450 2C19): 15.8 µM (inconclusive)
AC50 (Cytochrome P450 1A2): 15.8 µM (inconclusive)
AC50 (Cytochrome P450 3A4): inconclusive

COc1ccc(NC(=O)N2CCC3(CC2)CCN(C(=O)c2cccn2C)CC3)cc1
AC50 (Cytochrome P450 3A4): inconclusive

COc1ccc(NS(=O)(=O)c2ccc(NC(=S)NC(=O)C(C)C)cc2)cc1
IC50 (cells [8]): 11.5 µM (inactive)
EC50 [9]: 1.99 µM (active)
IC50 [10]: 6.23 µM (active)
EC50 (cells [11]): 19 µM (inactive)

CN1/C(=C\C(=O)C[n+]2ccc3ccccc3c2)C(C)(C)c2ccccc21
EC50 [12]: 0.505 µM (active)
EC50 [13]: > 60 µM (not active)
EC50 [14]: 5.31 µM (active)
IC50 [7]: > 80 µM (inactive)

Cc1csc2c(N3CCN(C(S)=Nc4ccc(C(F)(F)F)cc4)CC3)ncnc12
EC50 [4]: 1.68 µM (active)

COC(=O)C1Nc2cc(C(F)(F)F)ccc2S(=O)(=O)N1 (configuration not stated)
IC50 [5]: > 100 µM (not active)

COc1ccc(N(CC(=O)NCCSc2ccccc2)S(=O)(=O)c2ccccc2)cc1
IC50 (Beta-galactosidase): > 80 µM (inactive)

O=C(c1nc(C(F)(F)F)[nH]c1-c1ccccc1)N1CCc2ccccc2C1
IC50 (cells [8]): > 29.9 µM (inactive)
EC50 [9]: 2.77 µM (active)
IC50 [10]: 9.85 µM (active)
EC50 (cells [11]): > 29.9 µM (inactive)

Cc1cc(C)n(CCCNC(=O)COc2ccc([N+](=O)[O-])cc2)n1
AC50 (Escherichia coli): 89.1 µM (active)

O=C(c1cc(=O)c2cc(Cl)ccc2o1)N1CCN(Cc2ccccc2)CC1
IC50 (Beta-galactosidase): > 80 µM (inactive)

CC(C)[C@H](NC(=O)c1ccc(Cl)c(Cl)c1)C(=O)N1CCC[C@H]1C(=O)NCCc1ccccc1Cl
IC50 (cells [8]): > 29.9 µM (inactive)
EC50 [9]: 1.45 µM (active)
IC50 [10]: 1.53 µM (active)
EC50 (cells [11]): > 29.9 µM (inactive)

Cc1cc(C)c2cc(C#N)c(N3CCNCC3)nc2c1
IC50 (cells [8]): > 30 µM (inactive)
EC50 [9]: 1.55 µM (active)
IC50 [10]: 4.28 µM (active)
EC50 (cells [11]): > 30 µM (inactive)

C[C@H]1CCCC=CC2C[C@H](OC(=O)CN(C)C)C[C@@H]2[C@@H](O)/C=C\C(=O)O1 (some centres not stated)
AC50 (Cytochrome P450 3A4): inconclusive
AC50 (Cytochrome P450 2C9): inconclusive

From ChEMBL document CHEMBL1201862, “PubChem BioAssay data set” (2004)
